Assays:
Plasma = conditions: human
physchem = conditions: octanol/water, pH 7.4
[1] = AUC in po dosed Balb/c mouse infected with Mycobacterium tuberculosis H37Rv administered via gavage for 10 days starting 3 days post-infection measured at day 9 of drug dosing; assay type: ADME, organism-based; conditions: plasma

| SMILES | Cp(f) (Plasma) [µM] | logD (physchem) | AUC [1] [µg·h/mL] |
| --- | --- | --- | --- |
| CCNC(=O)Nc1nc2cc(-c3ccn(CCOC)c(=O)c3)c(N[C@H]3CCOC3)nc2s1 | 13 | – | – |
| C=CCNC(=O)Nc1nc2cc(-c3cccnc3)ccc2s1 | 0.7 | 3.9 | – |
| C=CCNC(=O)Nc1nc2cc(-c3cccnc3)cnc2s1 | 3.2 | 2.9 | – |
| CCNC(=O)Nc1nc2cc(-c3cccnc3)c(N[C@H]3CCOC3)nc2s1 | 28 | 2 | 200 |
| CCNC(=O)Nc1nc2cc(-c3cccnc3)c(NCC3CCOC3)nc2s1 (stereo not drawn) | 40 | 2.7 | – |
| CCNC(=O)Nc1nc2cc(-c3ccc(F)nc3)c(OCC3CCOC3)nc2s1 (stereo not drawn) | 0.6 | – | – |
| CCNC(=O)Nc1nc2cc(-c3ccc(C)nc3)c(OCC3CCOC3)nc2s1 (stereo not drawn) | 0.9 | – | – |
| CCNC(=O)Nc1nc2cc(-c3cncc(OC)c3)c(OCC3CCOC3)nc2s1 (stereo not drawn) | 2.5 | – | – |
| CCNC(=O)Nc1nc2cc(-c3cnc(C)nc3)c(OCC3CCOC3)nc2s1 (stereo not drawn) | 6 | – | – |
| CCNC(=O)Nc1nc2cc(-c3ccc(C#N)nc3)c(NC3CCOCC3)nc2s1 | 6 | – | – |
| CCNC(=O)Nc1nc2cc(-c3cncc(OCCN(C)C)c3)c(OCC3CCOC3)nc2s1 (stereo not drawn) | 11 | – | – |
| CCNC(=O)Nc1nc2cc(-c3cncc(OCCN4CCOCC4)c3)c(OCC3CCOC3)nc2s1 (stereo not drawn) | 10 | – | – |
| CCNC(=O)Nc1nc2cc(-c3ccn(C)c(=O)c3)c(OCC3CCOC3)nc2s1 (stereo not drawn) | 5 | – | – |
| CCNC(=O)Nc1nc2cc(-c3cc(C(C)C)n(C)c(=O)c3)c(OCC3CCOC3)nc2s1 (stereo not drawn) | 4 | – | – |
| CCNC(=O)Nc1nc2cc(-c3ccn(CCOC)c(=O)c3)c(OCC3CCOC3)nc2s1 (stereo not drawn) | 7 | – | – |
| CCNC(=O)Nc1nc2cc(-c3ccn(CCOC)c(=O)c3)c(O[C@@H]3CCOC3)nc2s1 | 11 | – | – |
| CCNC(=O)Nc1nc2cc(-c3ccn(CCN(C)C)c(=O)c3)c(OCC3CCOC3)nc2s1 (stereo not drawn) | 5 | – | – |
| CCNC(=O)Nc1nc2cc(-c3ccn(CCN4CCOCC4)c(=O)c3)c(OCC3CCOC3)nc2s1 (stereo not drawn) | 5 | – | – |

Reference: ChEMBL document CHEMBL3259758, “Thiazolopyridine ureas as novel antitubercular agents acting through inhibition of DNA Gyrase B” (J Med Chem, 2013)
